Earlier results, collected in paper PMC8152572 (Chemical Science, 2020).

Tested on: scFv-SM3
Details: SM3 antibody, comparison of 2a, 2b and 2c

- binding to SM3 (in words): worse binding to the naked derivative 2c
Substance: APDTRP [Compound 2c]
